This note sets out measurements from paper PMC7692337, “Masked Phenolic-Selenium Conjugates: Potent and Selective Antiproliferative Agents Overcoming P-gp Resistance” (Pharmaceuticals, 2020).

The nature of data set [1]: Free radical scavenging (DPPH method). Conditions: 30 min incubation, absorbance at 515 nm; for EC50: read-out: EC50 antiradical activity (DPPH). The protocol:
(§1) In vitro antioxidant properties of key unprotected phenolic derivatives were analyzed using two different methodologies: free radical scavenging capacity, using the DPPH method (2,2-diphenyl-1-picrylhydrazyl), a HAT (hydrogen atom transfer) procedure, widely-used for both natural and synthetic derivatives, and also the capacity for scavenging H2O2, one of the most common ROS in degenerative diseases, including cancer.
DPPH is a commercially-available stable free radical commonly used for in vitro testing of radical scavenging properties of antioxidants.
Reported methodology was used with minor modifications. To a 60 µM methanolic DPPH solution (1.17 mL), the antioxidant solution (5–7 different solutions, 30 µL) or solvent (control, 30 µL) were added. After 30 min. of incubation in the dark, absorbance was measured at 515 nm, and EC50 values were calculated.
On the technique in general: DPPH is a stable violet radical that fades when it is reduced.

The test system of data set [2] is A549 (non-small cell lung). Put plainly: Antiproliferative activity, NCI protocol. The format is cell-based, human. The protocol:
(§2) Organochalcogen derivatives prepared herein were evaluated in vitro as potential antiproliferative agents, using a panel of six human tumour cell lines: A549 (non-small cell lung), HBL-100 (breast), HeLa (cervix), SW1573 (non-small cell lung), as drug sensitive lines, T-47D (breast) and WiDr (colon) as drug resistant lines. In addition to precursors 2, 6, 7, 13, 14, 17, 19, ebselen and cisplatin (CDDP) were used as reference drugs. […] In both cases, the NCI protocol, with minor modifications, was followed; selected data, including the selectivity index (S.I.) can be found in Table 3 and full data in Supporting Information (Table S1).
(§3) The in vitro antiproliferative activity was assayed using minor modifications of the protocol of the National Cancer Institute (NCI) of the United States against the six human solid tumor cell and the non-tumor cell lines tested.

The test system of data set [3] is HBL-100 (breast). Kind of data set: Antiproliferative activity, NCI protocol. Type of data set: cell-based, human. As to the method:
as §2, §3

Data set [4] has as its system HeLa (cervix). Kind of data set: Antiproliferative activity, NCI protocol. Type of data set: cell-based, human. As to the method:
as §2, §3

Data set [5] concerns SW1573 (non-small cell lung). Kind of data set: Antiproliferative activity, NCI protocol. The format is cell-based, human. Conditions: Homo sapiens. The protocol:
as §2, §3

The test system of data set [6] is T-47D (breast). Put plainly: Antiproliferative activity, NCI protocol. The format is cell-based, human. To be noted: Homo sapiens, T47D, read-out: GI50 T-47D (Breast). The protocol:
as §2, §3

Data set [7] concerns WiDr (colon). Kind of data set: Antiproliferative activity, NCI protocol. Type of data set: cell-based, human. Conditions: Homo sapiens, WiDr, read-out: GI50 WiDr (Colon). The protocol: as §2, §3
In data set [8] the test system is BJ-hTert (fibroblasts). Put plainly: Antiproliferative activity on non-tumour cells, NCI protocol. The format is cell-based, human. Conditions: Homo sapiens, Fibroblast, read-out: GI50 BJ-hTert (Fibroblasts). As to the method: as §2, §3
Data set [9] deals with SW1573. Put plainly: P-glycoprotein assay, wild type line. The format is cell-based. Conditions: Homo sapiens, 48 h exposure. The protocol: (§4) This assay allows prediction of whether a certain chemotherapeutic agent could develop chemoresistance when behaving as a P-gp substrate, one of the most common efllux-pumps used for the extrusion of cell xenobiotics. For that purpose, a cell line-based assay was used, in particular the lung cancer cell line in its wild type (SW1573), and its variant overexpressing P-gp (Sw1573/Pgp). Moreover, compounds were tested in the presence and in the absence of verapamil, which is known to inhibit P-gp. Chemotherapeutic agents paclitaxel (PTX) and vinblastine (VB) are used herein as reference compounds. In this assay, the resistance factor (Rf) for a certain compound is defined as the ratio of GI50 in the cell line overexpressing P-gp and the wild one (Table 4), high values of Rf denoting that the compound behaves as a P-gp substrate, and thus, chemoresistance through this mechanism will probably take place.

Data set [10] is described as follows: P-glycoprotein assay, line overexpressing P-gp. The format is cell-based, human. Conditions: human, 48 h exposure. As to the method:
as §4

For data set [11], the system named is SW1573/Pgp. Put plainly: P-glycoprotein assay, line overexpressing P-gp. Type of data set: cell-based, human. Conditions: ratio between GI50 values in SW1573/PGP and SW1573 cells; for Rf w Verapamil: with verapamil; for Rf w/o Verapamil: without verapamil. As to the method:
as §4

Data set [12] has as its system six human tumour cell lines (A549, HBL-100, HeLa, SW1573, T-47D, WiDr). Kind of data set: Antiproliferative activity, panel of six human tumour cell lines. The format is cell-based. To be noted: for GI50: Homo sapiens, read-out: GI50 over the tumour cell lines (range, bound or words). The protocol:
as §2, §3

The nature of data set [13]: H2O2 scavenging (phenol red / horseradish peroxidase). Conditions: At 50 µM. The protocol:
as §1
Herein, following Bahorun’s methodology, in vitro levels of H2O2 were measured in an indirect fashion, by registering the H2O2-mediated oxidation of phenol red in the presence of horseradish peroxidase, to give a chromophore with a maximum absorption at 610 nm. Accordingly, in the presence of an antioxidant agent, there is an inverse correlation between the observed absorbance, and the scavenging properties. Table 2 depicts the H2O2-scavenging properties of compounds prepared herein, and tested at a final 50 µM concentration.
Reported methodology was used with minor modifications.

Where [14] appears, read: Homo sapiens, A549; read-out: GI50 A549 (Lung).
[15] abbreviates: Homo sapiens, HBL-100; read-out: GI50 HBL-100 (Breast).
The mark [16] stands for this setting: Homo sapiens, HeLa; read-out: GI50 HeLa (Cervix).
The mark [17] stands for this setting: SW1573, Table S1, read-out: GI50 SW1573 (Lung).
[18] abbreviates: with verapamil, read-out: GI50 SW153 w Verapamil.
Setting [19] is: without verapamil, read-out: GI50 SW1573 w/o Verapamil.
Setting [20] is: with verapamil (concentration not stated), with verapamil, read-out: GI50 SW1573/PGP w Verapamil.
Setting [21] is: without verapamil, read-out: GI50 SW1573/PGP w/o Verapamil.
The mark [22] stands for this setting: summary over the tested tumour cell lines, highest tested concentration 100 µM.

Molecules are shown by their SMILES. Where two headings read alike, the source gives them in different places.

Usually EC50 stands for the concentration giving half of the maximal effect. Consider `O=C(CCC[Se][Se]CCCC(=O)NCCc1ccc(O)c(O)c1)NCCc1ccc(O)c(O)c1` [Compound 16, 4,4′-Diselenobis{N-[2′’-(3′’’,4′’’-dihydroxyphenyl)ethyl]butanamide}], for which the concentration giving a half-maximal response (EC50) in data set [1] is 9.3 ± 1.3 µM. In addition, the GI50 came to 3700 ± 600 nM in [2] (setting [14]); 2400 ± 600 nM in data set [3] (setting [15]); 2300 ± 400 nM in data set [4] (setting [16]); 3000 ± 200 nM in [5] (setting [17]); 5800 ± 900 nM in data set [6] (drug resistant line); 3900 ± 600 nM in [7] (drug resistant line). Also, the GI50 in data set [8] (non-tumour cell line) was 3.5 ± 0.6 µM; in [9] (setting [18]) it was 2300 ± 300 nM; in data set [9] (setting [19]), 2700 ± 300 nM; in data set [12] (setting [22]), less than 6000 nM. The GI50 at 48 h in data set [10] (setting [20]) was 5.1 ± 0.4 µM; in [10] (setting [21]), 5.1 ± 0.6 µM. Besides, the “Rf w Verapamil” value in [11] is 2.2. Moreover, the “Rf w/o Verapamil” value in [11] worked out at 1.9.

As for `O=C(CCC[Se][Se]CCCC(=O)NCCc1ccc2c(c1)OCO2)NCCc1ccc2c(c1)OCO2` [Compound 46, 4,4’-Diselenobis{N-[2′’-(3′’’,4′’’-Methylenedioxyphenyl)ethyl]butanamide}], the “EC50 antiradical activity (DPPH)” value in [1] is listed as “complete impairment of activity”. In data set [1], the EC50 is more than 250 µM. In [13], the “% Scavenging of H2O2” value was “complete loss of ROS scavenging properties and ---”. In addition, the GI50 in data set [2] (Homo sapiens, A549, read-out: GI50 A549 (Lung)) is 270 ± 20 nM; in [3] (Homo sapiens, HBL-100, read-out: GI50 HBL-100 (Breast)), 250 ± 20 nM; in [4] (Homo sapiens, HeLa, read-out: GI50 HeLa (Cervix)) it was 120 ± 10 nM; in [5] (SW1573, read-out: GI50 SW1573 (Lung)), 300 ± 30 nM; in data set [6], 190 ± 40 nM; in data set [7], 250 ± 60 nM. Also, the GI50 in [8] was 1 ± 0.1 µM; in data set [12], 120 to 300 nM. In data set [12] (46 (acetal) versus 16 (free catechol)), the “fold improvement of potency against tumour cell lines compared to 16” value is recorded as “up to 30 fold”. Besides, the “fold increase in activity compared to CDDP” value in [12] (multidrug resistant cell lines (T-47D, WiDr)) was not above 104 fold.

Consider `c1cc2c(cc1CC[Se][Se]CCc1ccc3c(c1)OCO3)OCO2` [Compound 40, Bis[2-(3′,4′-methylenedioxyphenyl)ethyl]diselenide], for which the GI50 in data set [2] (setting [14]) came to 1600 ± 500 nM; in data set [3] (setting [15]), 2000 ± 900 nM; in [4] (setting [16]), 950 ± 70 nM; in data set [5] (setting [17]), 2700 ± 300 nM; in data set [6] (drug resistant line) it was 880 ± 170 nM; in [7] (drug resistant line) it was 1200 ± 100 nM. Besides, the GI50 is 28 ± 5 µM in data set [8] (non-tumour cell line), 1800 ± 200 nM in data set [9] (setting [18]) and 1900 ± 100 nM in data set [9] (setting [19]). Also, the GI50 at 48 h in data set [10] (setting [20]) is 4.5 ± 1 µM; in [10] (setting [21]) it was 3.9 ± 0.2 µM. The “Rf w Verapamil” value in data set [11] was 2.5. In data set [11], the “Rf w/o Verapamil” value was found to be 2.0. For the same compound, the “GI50 over the tumour cell lines (range, bound or words)” value in data set [12] (setting [22]) is “low micromolar‒submicromolar activities”.

Regarding `N#C[Se]CCCC(=O)NCCc1ccc2c(c1)OCO2` [Compound 45, N-[2′-(3′,4′-Methylenedioxyphenyl)ethyl]-4-selenocyanatobutanamide], the GI50 came out at 410 ± 30 nM in data set [2] (setting [14]); 1600 ± 300 nM in [3] (setting [15]); 360 ± 90 nM in data set [4] (setting [16]); 810 ± 20 nM in data set [5] (setting [17]); 400 ± 40 nM in data set [6] (drug resistant line); 410 ± 30 nM in data set [7] (drug resistant line). For the same compound, the GI50 in data set [8] (non-tumour cell line) is 1.8 ± 0.7 µM; in data set [9] (setting [18]), 1100 ± 100 nM; in data set [9] (setting [19]), 1100 ± 200 nM; in data set [12] (setting [22]), 360 to 1600 nM. In addition, the GI50 at 48 h in data set [10] (setting [20]) worked out at 2.5 ± 0.1 µM; in data set [10] (setting [21]) it was 3.3 ± 0.6 µM. Besides, the “Rf w Verapamil” value in [11] worked out at 2.3. Besides, the “Rf w/o Verapamil” value in data set [11] came to 3.1.

As for `c1cc2c(cc1C[Se][Se]Cc1ccc3c(c1)OCO3)OCO2` [Compound 39, Bis[(3’, 4’-methylenedioxyphenyl)methyl]diselenide], the “EC50 antiradical activity (DPPH)” value in [1] is recorded as “complete impairment of activity”. Further, in data set [1], the EC50 was more than 250 µM. For the same compound, the “% Scavenging of H2O2” value in [13] was “complete loss of ROS scavenging properties and ---”. Also, the GI50 in data set [2] (setting [14]) came out at 1200 ± 300 nM; in data set [3] (setting [15]), 2900 ± 600 nM; in data set [4] (setting [16]) it was 2400 ± 1400 nM; in data set [5] (setting [17]), 3200 ± 900 nM; in data set [6] (drug resistant line), 2900 ± 400 nM; in data set [7] (drug resistant line), 1600 ± 300 nM. The GI50 in data set [8] (non-tumour cell line) is 3.9 ± 1 µM; in data set [9] (setting [18]), 2500 ± 100 nM; in data set [9] (setting [19]), 3000 ± 500 nM. Also, the figures for the GI50 at 48 h in [10] (setting [20]) and in [10] (setting [21]) were 5.1 ± 0.4 µM and 18 ± 0.1 µM, respectively. For the same compound, the “Rf w Verapamil” value in data set [11] came out at 2.0. In addition, in data set [11], the “Rf w/o Verapamil” value amounted to 6.0. Besides, the “GI50 over the tumour cell lines (range, bound or words)” value in data set [12] (setting [22]) was “low micromolar‒submicromolar activities”.
